In patent US20250346634A1, “CYCLIC PEPTIDES FOR TARGETING EPIDERMAL GROWTH FACTOR RECEPTOR AND MUTATIONS THEREOF FOR DRUG DELIVERY” (priority 2022, published 2025):
Bridge positions count the residues as written; N and C are the ends. Peptide text beside a SMILES is read from it. * marks the point of attachment. FITC = O=C1OC2(c3ccc(O)cc3Oc3cc(O)ccc32)c2ccc(NC(=S)*)cc21; GABA = NCCCC(=O)O

Columns and labels:
[1] = test system: H1299, DKMG and K562 cells; experiment: Flow cytometry binding of peptide-FITC conjugates; type: cell-based; settings: 2.5 μM FITC-labeled peptide
Text: This concentration was chosen based on preliminary dose dependence study.

[2] = test system: high-EGFR-expressing MDA-435 cells; experiment: Target specificity by flow cytometry, MDA-435; type: cell-based; settings: FITC-labeled peptides
Protocol: (§1) Cells with 80-90% confluence were incubated with 2.5 μM FITC-conjugated peptides in RPMI-5% FBS for 1 h at 37° C. Cells were scrapped from the culture flask and washed twice with 2 ml FCSB. Cells were analyzed as previously described Internalization of peptide-FITC conjugates.
(§2) Cells were cultured overnight in 6-well plates under 80-90% confluence, the medium was replaced with 1 ml of the fresh medium with 5% FBS that contained 2.5 μM FITC-conjugated peptides. The plates were incubated for 1, 2, or 3 h at 37° C. After incubation, the cells were collected with trypsin, washed twice with FCSB, and resuspended in 200 μl of FCSB. Analysis was done with FACS cell analyzer.
(§3) Targeting specificity of FITC-labeled P4-P6, P8, and P9 peptides was investigated on three cell lines, which were not used in biopanning: kidney HEK-293 and breast MCF-10A normal cells, and breast cancer MDA-435 cells. To verify EGFR WT expression on these cell lines, the inventors stained the cells with APC-labeled monoclonal anti-human EGFR antibody followed by a flow cytometry analysis.
(§4) The interaction of the FITC labeled P4 P6, P8, and P9 with these cell lines was analyzed by flow cytometry.

[3] = test system: EGFR+ve cells (H1299, DKMG) versus K562 cells; experiment: Flow cytometry internalization of peptide-FITC conjugates; type: cell-based; settings: 2.5 μM FITC-labeled peptide
Text: Analysis was done with FACS cell analyzer.

[4] = test system: DKMG cells line expressing both EGFR+ve and EGFRvIII mutation; settings: 2.5 μM FITC-labeled peptide
Protocol: as §2

DKMG cells = experiment: Confocal microscopy, DKMG; type: cell-based; settings: 25 μM; for green FITC signal: after 3 hours; for fluorescence intensity: time zero
Protocol: (§5) H1299, DKMG and HEK-293 cells were seeded in 12-well glass bottom black plates in concentrations of 5.0×10^4, 1.0×10^5, and 2.5×10^4 cells/well, respectively. The cells were cultured in complete growth medium at 37° C. under 5% CO2 for 24 h. After incubation, the medium was removed, the cells were twice washed with PBS Ca^2+Mg^2+, and new fresh medium (0.5 ml) contained 25 μM of FITC labeled P6 or P9 peptides was added. The stained cells were incubated at 37° C. under 5% CO2 for 0 h and 3 h, washed twice with PBS, and stained with Hoechst 33258 ([…], 0.5 ml, 37° C., 5% CO2) for 10 min. The cells were twice washed with PBS and fixed with 4% paraformaldehyde (PFA). Fluorescence images were then recorded at the magnification of ×200 with a Zeiss LSM700 confocal laser microscope.
(§6) To get additional confirmation data on the specificity of the FITC labeled P6 and P9 peptides towards EGFR H1299 lung cancer and […] DKMG glioblastoma cell lines compared to EGFR−ve HEK-293 normal cells, the inventors employed confocal scanning microscopy. The cells were incubated with 25 μM FITC-labeled P6 and P9, the cell nuclear were stained with […], the cells were fixed with 4% paraformaldehyde, and captured immediately after addition and 3 h later. […] A clear correlation of the green FITC signal with the cell type was established.

MCF-10A cells = settings: FITC-labeled peptides, flow cytometry
Protocol: as §1, §2, §3, §4

HEK-293 cells = experiment: Confocal microscopy, HEK-293; type: cell-based; settings: 25 μM, after 3 hours
Protocol: as §5, §6

H1299 cells = experiment: Confocal microscopy, H1299; type: cell-based; settings: 25 μM
Protocol: as §5, §6

Structure (SMILES): CSCC[C@@H]1NC(=O)[C@H](C)NC(=O)[C@H](CC(N)=O)NC(=O)[C@H](C(C)C)NC(=O)[C@@H](NC(=O)CCCNC(=S)Nc2ccc3c(c2)C(=O)OC32c3ccc(O)cc3Oc3cc(O)ccc32)CSSC[C@@H](C(N)=O)NC(=O)[C@H](Cc2ccc(O)cc2)NC(=O)[C@H](CO)NC(=O)[C@H](CCC(N)=O)NC1=O [FITC-labeled P9] ({FITC-GABA}-CVNAMQSYC-NH2; disulfide 1-9)
- binding (flow cytometry) [1]: bind to H1299 and DKMG selectively but not to K562 cells
- internalization into MDA-435 cells [2]: pronounced internalization
- internalization (flow cytometry) [3]: internalized only into to EGFR+ve cells
- internalization activity to DKMG [4]: higher internalization activity
- green FITC signal (DKMG cells): significantly increased after 3 hours
- fluorescence intensity (DKMG cells): pronounced emission

Structure (SMILES): CC(C)C[C@@H]1NC(=O)[C@H](C)NC(=O)[C@H](CO)NC(=O)[C@@H](NC(=O)CCCNC(=S)Nc2ccc3c(c2)C(=O)OC32c3ccc(O)cc3Oc3cc(O)ccc32)CSSC[C@@H](C(N)=O)NC(=O)[C@H](Cc2cnc[nH]2)NC(=O)[C@H](CO)NC(=O)[C@H](C)NC(=O)[C@H](Cc2c[nH]c3ccccc23)NC1=O [FITC-labeled P8] ({FITC-GABA}-CSALWASHC-NH2; disulfide 1-9)
- binding (flow cytometry) [1]: bind to H1299 and DKMG selectively but not to K562 cells
- binding to MDA-435 cells [2]: noticeable binding
- internalization (flow cytometry) [3]: internalized only into to EGFR+ve cells
- binding to MCF-10A cells (MCF-10A cells): noticeable binding

Structure (SMILES): CC[C@H](C)[C@@H]1NC(=O)[C@H](Cc2ccc(O)cc2)NC(=O)[C@H](CO)NC(=O)CNC(=O)[C@@H]2CCCN2C(=O)[C@H](C(C)C)NC(=O)[C@H](Cc2cnc[nH]2)NC(=O)[C@@H](NC(=O)CCCNC(=S)Nc2ccc3c(c2)C(=O)OC32c3ccc(O)cc3Oc3cc(O)ccc32)CSSC[C@@H](C(N)=O)NC1=O [FITC-labeled P6] ({FITC-GABA}-CHVPGSYIC-NH2; disulfide 1-9)
- internalization into MDA-435 cells [2]: pronounced internalization
- internalization (flow cytometry) [3]: internalized only into to EGFR+ve cells
- green FITC signal (HEK-293 cells): low-intensive signal
- green FITC signal (H1299 cells; after 3 hours): strong signal
- fluorescence intensity (H1299 cells; time zero): not detectable
- green FITC signal (DKMG cells): strong signal
- fluorescence intensity (DKMG cells): not detectable
